Tests used:
Assay type in all cases: biochemical
[1] = molecular target: T1, catalytic subunit of cAMP-dependent protein kinase (PKA) (Bos taurus, UniProt P00517); assay: PKA kinase assay with inhibitors (bis-kemptide R110 substrate, Aminopeptidase M, fluorescence); details: 0.5 units PKA, 5 μM bis-kemptide, 50 μM ATP; FIG. 2
T1 construct: purchased Promega Corp., Madison, Wis
Experimental: The kinase activity of the catalytic subunit of cAMP-dependent protein kinase (PKA) from Promega Corp., Madison, Wis. was tested in triplicate in a 96-well plates using the following reaction components: 40 mM Tris-HCl, pH 7.5, 20 mM MgCl2, 0.1 mg/ml bovine serum albumin (BSA), 50 μM ATP, and 5 μM of LRRASLG (SEQ. ID. NO: 1)-R110—GLSARRL, a bis-rhodamine peptide kinase substrate also known as “bis-kemptide.” The final reaction volume was 50 uL. […] All kinase reactions were incubated at room temperature for 20 minutes.
The kinase reactions were terminated by adding a termination/detection reagent (25 ul) containing 100 mM EDTA and 25 mU aminopeptidase M (Calbiochem, San Diego, Calif.).
Enzymatic activity of the kinase was measured by taking a reading of the fluorescence, at the time of addition of actinonin and 3 hrs later to test the stability of the signal, with an excitation at 480 nm and fluorescence emission at 520-530 nm.
PKA Assay With Inhibitors. The effects of various inhibitors of PKA kinase were tested.
Fluorescence was detected with an excitation of 480 nm and fluorescence emission at 520-530 nm.

[2] = molecular target: T2, serine/threonine phosphatase PP2A (Homo sapiens, UniProt P67775); assay: PP2A phosphatase assay with inhibitors (bis-STP-R110 phosphopeptide, Aminopeptidase M)
T2 construct: purchased Promega (Madison, Wis.)
T2 sequence (P67775 whole entry): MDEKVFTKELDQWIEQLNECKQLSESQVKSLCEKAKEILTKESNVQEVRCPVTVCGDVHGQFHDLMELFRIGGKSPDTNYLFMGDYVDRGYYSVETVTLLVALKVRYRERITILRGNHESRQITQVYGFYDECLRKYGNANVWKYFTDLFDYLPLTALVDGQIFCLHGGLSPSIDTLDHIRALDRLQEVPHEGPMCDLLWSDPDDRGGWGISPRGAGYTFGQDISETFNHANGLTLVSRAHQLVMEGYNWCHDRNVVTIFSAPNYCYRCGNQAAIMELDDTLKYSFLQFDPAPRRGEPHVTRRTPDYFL
Experimental: PP2A activity with STP-R-110. The phosphatase activity of phosphatase 2A (PP2A) was carried out in 50 ul volume containing 5 uM of phosphopeptide substrate bis-STP-R110 (RRAT(PO3)VA (SEQ. ID. NO:5)-R110-[…]), 40 mM Tris-HCl, pH 7.5, and 0.1 mg/ml BSA. Phosphatase reactions were initiated by adding the enzyme serine/threonine phosphatase PP2A from Promega (Madison, Wis.). The amount of PP2A added to each reaction was titrated in ½ increments, in a range from 0.0075 ng (0.015 munits) to 7.5 nanograms (15 munits), plus control reactions containing no enzyme. Phosphatase reactions were carried out for 10 minutes at room temperature in 96-well plates.
Phosphatase reactions were terminated with 25 ul of 2 uM okadaic acid ((9,10-Deepithio-9,10-didehydroacanthifolicin) (sodium salt)), a known inhibitor of PP2A. After termination, 25 mU/well of Aminopeptidase M was added in 40 mM Tris buffer, pH 7.5, 0.1 mg/ml BSA. The aminopeptidase reaction was incubated at room temperature, 25° C., for 90 minutes. Fluorescence was read as in Example 1.

[3] = molecular target: T3, tyrosine phosphatase PTP-1B (Homo sapiens, UniProt P18031); assay: PTP-1B phosphatase assay with inhibitors (bis-PTK5p-R110 phosphopeptide, Aminopeptidase M); details: 25 mU/well PTP-1B, inhibitor zero up to 50 uM; FIG. 10
T3 sequence (P18031 1-435): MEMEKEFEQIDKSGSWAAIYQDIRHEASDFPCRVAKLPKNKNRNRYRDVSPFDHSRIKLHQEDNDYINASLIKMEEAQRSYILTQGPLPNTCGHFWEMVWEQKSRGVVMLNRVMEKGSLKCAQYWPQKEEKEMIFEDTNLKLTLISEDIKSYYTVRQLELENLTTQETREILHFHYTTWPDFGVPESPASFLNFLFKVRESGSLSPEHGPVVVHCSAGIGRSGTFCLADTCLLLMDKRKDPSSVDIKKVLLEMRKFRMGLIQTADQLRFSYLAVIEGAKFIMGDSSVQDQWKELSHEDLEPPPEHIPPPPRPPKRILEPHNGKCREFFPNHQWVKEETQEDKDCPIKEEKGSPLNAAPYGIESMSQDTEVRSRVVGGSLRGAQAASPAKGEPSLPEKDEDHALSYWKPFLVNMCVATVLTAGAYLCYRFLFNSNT
Experimental: The effect of various inhibitors were tested on the dephosphorylation of bis-PTK5p-R110 by the enzyme tyrosine phosphatase PTP-1B. […] Inhibitors were included in the reactions at concentrations ranging from zero inhibitor up to 50 uM. Phosphatase reactions were initiated by adding PTB-1B, which was added to each reaction at 25 mU/well. Control reactions containing no enzyme were also run.
Phosphatase reactions were terminated with 25 ul of a solution of Na3VO4 and 25 mU/well of Aminopeptidase M. Reactions were incubated at room temperature for 60 minutes.

Row | effect on kinase activity of PKA (fluorescence output with increasing inhibitor concentration) [1] | Molecule | inhibition of dephosphorylation of bis-PTK5p-R110 by PTP-1B [3] | also measured
1 | without effect | CC1CNCCN1S(=O)(=O)c1cccc2cnccc12 (stereo not drawn) [H7, 1-(5-isoquinolinesulfonyl)-2-methylpiperzine] | – | –
2 | without effect | N#CC(=C(N)Sc1ccccc1N)C(C#N)=C(N)Sc1ccccc1N [U0126, 1,4-diamino-2,3-dicyano-1,4-bis-(2-aminophenylthio)butadiene] | – | –
3 | – | C=C1[C@@H](O)[C@@H]2O[C@]3(CC[C@H](/C=C/[C@@H](C)[C@@H]4CC(C)=C[C@@]5(O[C@H](C[C@@](C)(O)C(=O)O)CC[C@H]5O)O4)O3)CC[C@H]2O[C@@H]1[C@@H](O)C[C@H](C)[C@H]1O[C@@]2(CCCCO2)CC[C@H]1C [okadaic acid, 9,10-Deepithio-9,10-didehydroacanthifolicin] | – | IC50 [2]: < 1 nM; inhibition of dephosphorylation of the substrate by PP2A ([2]; 2 nanograms PP2A (4 munits), 5 uM phosphopeptide substrate, inhibitor zero up to 100 nM, FIG. 7): inhibited
4 | – | CN[C@@H]1C[C@H]2O[C@@](C)([C@@H]1OC)n1c3ccccc3c3c4c(c5c6ccccc6n2c5c31)C(=O)NC4 [staurosporin, (9S-(9α,10,11β,13α)-2,3,10,11,12,13-Hexahydro-10-methoxy-9-methyl-[1-(methylamino)-epoxy-1H,9H-diindolo[1,2,3-gh:3′,2′,1′-1m]pyrrolo{3,4-j]][1,7]benzodiazonin-1-one)] | had no effect | –
5 | – | Sodium vanadate [Na3VO4] | inhibition of PTP 1B enzyme activity | –

Source: patent US7314729B2, “Methods and kits for transferases” (Promega Corp., priority 2002, dated 2008)
